What follows are compounds tested against T1, Full-length, GST-tagged, human CaMKIIδ (Homo sapiens, UniProt Q13557) (assay: CaMKIIδ binding assay (TR-FRET with BODIPY-labeled probe ligand)). Details: Table 2; activity class for CaMKIIδ.
T1 construct: Full-Length, Glutathione-S-Transferase(GST)-Tagged, Human CaMKIIδ was purchased from Carna Biosciences; purchased Carna Biosciences 02-111
T1 sequence (Q13557 1-478 isoform Q13557-12): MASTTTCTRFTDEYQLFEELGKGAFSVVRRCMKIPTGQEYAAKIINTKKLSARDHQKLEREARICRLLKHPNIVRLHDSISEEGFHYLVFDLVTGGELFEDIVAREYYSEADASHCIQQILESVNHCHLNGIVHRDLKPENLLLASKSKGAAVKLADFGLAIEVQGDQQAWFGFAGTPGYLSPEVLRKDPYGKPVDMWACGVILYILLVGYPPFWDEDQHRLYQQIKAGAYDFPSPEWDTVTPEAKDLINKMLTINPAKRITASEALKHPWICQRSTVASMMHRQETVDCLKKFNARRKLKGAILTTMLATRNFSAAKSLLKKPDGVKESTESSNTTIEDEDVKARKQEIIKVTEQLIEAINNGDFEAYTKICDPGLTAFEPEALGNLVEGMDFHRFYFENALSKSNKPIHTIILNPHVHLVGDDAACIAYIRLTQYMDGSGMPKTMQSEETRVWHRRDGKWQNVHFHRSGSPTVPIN
How it was run: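 TR-FRET probe-displacement binding: 0.5 nM GST-CaMKIIδ with 10 μg/mL calmodulin, 1 mM CaCl2, 0.21 nM Tb-anti-GST Ab and 300 nM BODIPY probe in HEPES pH 7.6 buffer. Eight-point 4-fold dilutions, 1 hr at room temperature. IC50 from logistic fit; 100% inhibition defined by 3 μM parent compound.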
For C[C@@H](Cn1cnnn1)Oc1cc(-c2cnc(Nc3cn(C4CCN(C5CCOCC5)CC4)nc3C#N)nc2)ccc1Cl [Example 592, (S)-4-((5-(3-((1-(1H-tetrazol-1-yl)propan-2-yl)oxy)-4-chlorophenyl)pyrimidin-2-yl)amino)-1-(1-(tetrahydro-2H-pyran-4-yl)piperidin-4-yl)-1H-pyrazole-3-carbonitrile], the IC50 was under 10 nM.
With COc1ccc(C(=O)N2CCCNCC2)cc1Nc1ncc(-c2ccc(Cl)c(O[C@@H](C)Cn3cnnn3)c2)cn1 [Example 593, (S)-(3-((5-(3-((1-(1H-tetrazol-1-yl)propan-2-yl)oxy)-4-chlorophenyl)pyrimidin-2-yl)amino)-4-methoxyphenyl) (1,4-diazepan-1-yl)methanone] the IC50 was under 10 nM.
Compound COc1cc(N2CCOC(CO)C2)ccc1Nc1ncc(-c2ccc(Cl)c(O[C@@H](C)Cn3cnnn3)c2)cn1 (stereo partly drawn) [Example 594, (4-(4-((5-(3-(((S)-1-(1H-tetrazol-1-yl)propan-2-yl)oxy)-4-chlorophenyl)pyrimidin-2-yl)amino)-3-methoxyphenyl)morpholin-2-yl)methanol] has an IC50 of 10 to 100 nM.
In the case of COc1ccc(N2CC(N3CCOCC3)C2)cc1Nc1ncc(-c2ccc(Cl)c(O[C@@H](C)Cn3cnnn3)c2)cn1 [Example 595, (S)-5-(3-((1-(1H-tetrazol-1-yl)propan-2-yl)oxy)-4-chlorophenyl)-N-(2-methoxy-5-(3-morpholinoazetidin-1-yl)phenyl)pyrimidin-2-amine], the IC50 is reported as 10 to 100 nM.
For C[C@@H](Cn1cnnn1)Oc1cc(-c2cnc(Nc3cn(CC4CN(C(=O)OC(C)(C)C)C4)nc3C(F)(F)F)nc2)ccc1Cl [Example 596, tert-butyl (S)-3-((4-((5-(3-((1-(1H-tetrazol-1-yl)propan-2-yl)oxy)-4-chlorophenyl)pyrimidin-2-yl)amino)-3-(trifluoromethyl) -1H-pyrazol-1-yl)methyl)azetidine-1-carboxylate], the IC50 was at least 100 nM.
For C[C@@H](Cn1cnnn1)Oc1cc(-c2cnc(Nc3cn(CC4CNC4)nc3C(F)(F)F)nc2)ccc1Cl [Example 597, (S)-5-(3-((1-(1H-tetrazol-1-yl)propan-2-yl)oxy)-4-chlorophenyl)-N-(1-(azetidin-3-ylmethyl)-3-(trifluoromethyl)-1H-pyrazol-4-yl)pyrimidin-2-amine], the IC50 was under 10 nM.
In the case of C[C@@H](Cn1cnnn1)Oc1cc(-c2cnc(Nc3cn(CC4CN(C5COC5)C4)nc3C(F)(F)F)nc2)ccc1Cl [Example 598, (S)-5-(3-((1-(1H-tetrazol-1-yl)propan-2-yl)oxy)-4-chlorophenyl)-N-(1-((1-(oxetan-3-yl)azetidin-3-yl)methyl)-3-(trifluoromethyl)-1H-pyrazol-4-yl)pyrimidin-2-amine], the IC50 is reported as under 10 nM.
C[C@@H](Cn1cnnn1)Oc1cc(-c2cnc(Nc3cn(C4CCCN(C(=O)OC(C)(C)C)C4)nc3C(F)(F)F)nc2)ccc1Cl (stereo partly drawn) [Example 599, tert-butyl 3-(4-((5-(3-(((S)-1-(1H-tetrazol-1-yl)propan-2-yl)oxy)-4-chlorophenyl)pyrimidin-2-yl)amino)-3-(trifluoromethyl)-1H-pyrazol-1-yl)piperidine-1-carboxylate] gave an IC50 of at least 100 nM.
Compound C[C@@H](Cn1cnnn1)Oc1cc(-c2cnc(Nc3cn(C4CCCNC4)nc3C(F)(F)F)nc2)ccc1Cl (stereo partly drawn) [Example 600, 5-(3-(((S)-1-(1H-tetrazol-1-yl)propan-2-yl)oxy)-4-chlorophenyl)-N-(1-(piperidin-3-yl)-3-(trifluoromethyl)-1H-pyrazol-4-yl)pyrimidin-2-amine] has an IC50 of under 10 nM.
With C[C@@H](Cn1cnnn1)Oc1cc(-c2cnc(Nc3cn(C4CCCN(C5COC5)C4)nc3C(F)(F)F)nc2)ccc1Cl (stereo partly drawn) [Example 601, 5-(3-(((S)-1-(1H-tetrazol-1-yl)propan-2-yl)oxy)-4-chlorophenyl)-N-(1-(1-(oxetan-3-yl)piperidin-3-yl)-3-(trifluoromethyl)-1H-pyrazol-4-yl)pyrimidin-2-amine] the IC50 was 10 to 100 nM.
C[C@@H](Cn1cnnn1)Oc1cc(-c2cnc(Nc3cn(CC4CCCN4)nc3C(F)(F)F)nc2)ccc1Cl (stereo partly drawn) [Example 602, 5-(3-(((S)-1-(1H-tetrazol-1-yl)propan-2-yl)oxy)-4-chlorophenyl)-N-(1-(pyrrolidin-2-ylmethyl)-3-(trifluoromethyl)-1H-pyrazol-4-yl)pyrimidin-2-amine] was tested, and the IC50 was under 10 nM.
CCOC(=O)C1CCC(n2cc(Nc3ncc(-c4ccc(Cl)c(O[C@@H](C)Cn5cnnn5)c4)cn3)c(C(F)(F)F)n2)CC1 (stereo partly drawn) [Example 603, ethyl (S)-4-(4-((5-(3-((1-(1H-tetrazol-1-yl)propan-2-yl)oxy)-4-chlorophenyl)pyrimidin-2-yl)amino)-3-(trifluoromethyl)-1H-pyrazol-1-yl)cyclohexane-1-carboxylate] showed an IC50 of 10 to 100 nM.
In the case of C[C@@H](Cn1cnnn1)Oc1cc(-c2cnc(Nc3cn(C4CCC(C(=O)O)CC4)nc3C(F)(F)F)nc2)ccc1Cl (stereo partly drawn) [Example 604, (S)-4-(4-((5-(3-((1-(1H-tetrazol-1-yl)propan-2-yl)oxy)-4-chlorophenyl)pyrimidin-2-yl)amino)-3-(trifluoromethyl)-1H-pyrazol-1-yl)cyclohexane-1-carboxylic acid], the IC50 is reported as 10 to 100 nM.
Cc1ncc(N2CC(N3CCOCC3)C2)cc1Nc1ncc(-c2ccc(Cl)c(O[C@@H](C)Cn3cnnn3)c2)cn1 [Example 605, (S)-5-(3-((1-(1H-tetrazol-1-yl)propan-2-yl)oxy)-4-chlorophenyl)-N-(2-methyl-5-(3-morpholinoazetidin-1-yl)pyridin-3-yl)pyrimidin-2-amine] was tested, and the IC50 was 10 to 100 nM.
In the case of CCN(CC)C(=O)Cn1cc(Nc2ncc(-c3ccc(Cl)c(O[C@@H](C)Cn4cnnn4)c3)cn2)c(C(F)(F)F)n1 [Example 606, (S)-2-(4-((5-(3-((1-(1H-tetrazol-1-yl)propan-2-yl)oxy)-4-chlorophenyl)pyrimidin-2-yl)amino)-3-(trifluoromethyl)-1H-pyrazol-1-yl)-N,N-diethylacetamide], the IC50 is reported as 10 to 100 nM.
Work on C[C@@H](Cn1cnnn1)Oc1cc(-c2cnc(Nc3cn(CC(=O)N4CCOCC4)nc3C(F)(F)F)nc2)ccc1Cl [Example 607, (S)-2-(4-((5-(3-((1-(1H-tetrazol-1-yl)propan-2-yl)oxy)-4-chlorophenyl)pyrimidin-2-yl)amino)-3-(trifluoromethyl)-1H-pyrazol-1-yl)-1-morpholinoethan-1-one] yielded an IC50 of under 10 nM.
For CCC(C)n1cc(Nc2ncc(-c3ccc(Cl)c(O[C@@H](C)Cn4cnnn4)c3)cn2)c(C(F)(F)F)n1 (stereo partly drawn) [Example 608, 5-(3-(((S)-1-(1H-tetrazol-1-yl)propan-2-yl)oxy)-4-chlorophenyl)-N-(1-(sec-butyl)-3-(trifluoromethyl)-1H-pyrazol-4-yl)pyrimidin-2-amine], the IC50 was 10 to 100 nM.
For C[C@@H](Cn1cnnn1)Oc1cc(-c2cnc(Nc3cn(CC4CCCN4C4COC4)nc3C(F)(F)F)nc2)ccc1Cl (stereo partly drawn) [Example 609, 5-(3-(((S)-1-(1H-tetrazol-1-yl)propan-2-yl)oxy)-4-chlorophenyl)-N-(1-((1-(oxetan-3-yl)pyrrolidin-2-yl)methyl)-3-(trifluoromethyl)-1H-pyrazol-4-yl)pyrimidin-2-amine], the IC50 was 10 to 100 nM.
Cc1ncc(N2CC(CN3CCOCC3)C2)cc1Nc1ncc(-c2ccc(Cl)c(O[C@@H](C)Cn3cnnn3)c2)cn1 [Example 610, (S)-5-(3-((1-(1H-tetrazol-1-yl)propan-2-yl)oxy)-4-chlorophenyl)-N-(2-methyl-5-(3-(morpholinomethyl)azetidin-1-yl)pyridin-3-yl)pyrimidin-2-amine] was tested, and the IC50 was under 10 nM.

From patent US10543212B2, “Substituted amines for treating cardiac diseases” (Cardurion Pharmaceuticals, LLC, priority 2017, dated 2020)
